According to patent US8211445B2, “PSM peptides as vaccine targets against methicillin-resistant Staphylococcus” (The United States of America, as represented by the …, priority 2007, dated 2012):

Columns and labels:
[1] = system: human neutrophils; assay: Lysis of human neutrophils (release of lactate dehydrogenase); format: cell-based; conditions: synthetic PSM peptides at 10 μg/ml, LDH release (FIG. 4A)
Description: (§1) Lysis of PMNs by synthetic PSMs or clarified S. aureus culture media was determined essentially as described (Voyich et al., J Infect Dis 194, 1761-70, 2006; Voyich et al., J Immunol 175, 3907-19, 2005). Synthetic PSMs (1 or 10 μg/ml) were added to wells of a 96-well tissue culture plate containing 10^6 PMNs and plates were incubated at 37° C. for up to 3 hours. At the desired times, PMN lysis was determined by release of lactate dehydrogenase (LDH; Cytotoxicity Detection Kit, Roche Applied Sciences). Alternatively, wild-type and isogenic mutant S. aureus strains were cultured for 18 hours at 37° C. in 50 ml TSB with shaking using a 100 ml flask. Bacteria were removed by centrifugation and culture media were sterilized by filtration and stored at −80° C. in aliquots until used. Culture medium was diluted 1:10 in RPMI/H, mixed with human PMNs (10^6) and tested for its ability to cause PMN lysis.
as §1, with “above in Example 2.” for “(Voyich et al., J Infect Dis 194, 1761-70, 2006; Voyich et al., J Immunol 175, 3907-19, 2005).”
Human neutrophil assays: Human neutrophil isolation, chemotaxis, calcium ion flux, priming, lysis assays, and measurement of IL-8 production were performed as described in Example 2.

[2] = system: human neutrophils; assay: Neutrophil chemotaxis (transwell); format: cell-based; conditions: PSM-mec vs PSMα3; range similar to other α-type PSMs, in general higher than β-type PSMs (FIG. 21A)
Description: (§2) Neutrophils were subjected to a brief hypotonic shock with pyrogen-free water (Sigma), washed, and suspended at 5×10^6 cells/ml in HBSS containing 0.05% human serum albumin (HSA; CLB). Chemotaxis of neutrophils was determined by using fluorescently-labeled neutrophils that migrated through a membrane fitted into an insert of a 24-well microtiter plate transwell system (Costar) containing a prewetted 3-μm-pore-size polycarbonate filter as described (de Haas et al., J Exp Med 199, 687-95, 2004). For measurement of calcium ion fluxes, 5×10^6 neutrophils/ml were loaded with 2 μM Fluo-3-AM (Molecular Probes) in RPMI containing 0.05% HSA (RPMI-HSA) for 20 minutes at room temperature under agitation, washed twice with buffer, and resuspended in RPMI-HSA at 10^6 cells/ml. Calcium fluxes were analyzed with a FACScalibur (Becton Dickinson).
(§3) Neutrophils were subjected to a brief hypotonic shock with pyrogen-free water (Sigma), washed, and suspended at 5×10^6 cells/ml in HBSS containing 0.05% human serum albumin (HAS; CLB). Chemotaxis of neutrophils was determined by using fluorescently-labeled neutrophils that migrated through a membrane fitted into an insert of a 24-well microtiter plate transwell system (Costar) containing a prewetted 3-μm-pore-size polycarbonate filter. […] Calcium fluxes were analyzed with a FACScalibur (Becton Dickinson). […]

[3] = system: human neutrophils; assay: Calcium ion flux in neutrophils (Fluo-3-AM); format: cell-based; conditions: PSM-mec vs PSMα3; range similar to other α-type PSMs, in general higher than β-type PSMs (FIG. 21B)
Description: as §2, §3

[4] = Immunization of mice with synthetic PSM peptides, PSM-specific antibodies by ELISA; format: in vivo, mice (BALB/c); conditions: 50 μg s.c. with CFA, booster with IFA
Description: In order to determine the immunogenicity of synthetic PSM peptides, mice (BALB/c, female, 6-8 weeks) were injected subcutaneously with 50 μg (100 μL) of each PSM peptide in sterile PBS emulsified with complete Freund's adjuvant (CFA) for primary immunization. A booster injection containing incomplete Freund's adjuvant (IFA) instead of CFA was given to the animals 14 days after the primary immunization. The control group of animals received injections of sterile PBS and adjuvants only. Three blood withdrawals were performed on each mouse. The first two blood samples were collected via retro-orbital route immediately before primary injection and before booster injection, respectively. All animals were sacrificed 21 days after booster injection for the terminal blood samples.
PSM-specific antibodies in mouse serum were determined by ELISA assays. Microtiter plates (Nunc 96-well flat-bottom MaxiSorp plates) were coated with 20 μg/ml of each synthetic PSM peptides in PBS plus 0.05% NaN3, and incubated overnight at 4° C. The plates were washed with PBS containing 0.05% Tween-20, and blocked for 1 hour at room temperature with 1% BSA (Sigma) and 0.05% NaN3 in PBS. Serum samples were diluted in assay diluent (Tris-buffered saline containing 0.1% BSA and 0.05% Tween-20, pH 7.2), and added to the washed wells at 100 μl/well for an incubation of 2 hours at room temperature. Plates were washed again and HRP-labeled goat anti-mouse IgG (R&D Systems) and goat anti-mouse IgM (Jackson ImmunoResearch Laboratory) were diluted in assay diluent and added to the plates at 100 μl/well for an incubation of 1 hour at room temperature in order to detect PSM specific mouse IgG and IgM, respectively. Plates were washed again and a substrate solution containing equal volume of Tetramethylbenzidine and H2O2 was added to the plates at 100 μl/well for color development. The reaction was terminated by adding 50 μl of 1 M H2SO4 to each well, and optical density (O.D.) was measured at 450 nm using an ELISA plate reader.

Substance: fMEFVAKLFKFFKDLLGKFLGNN [PSMα3]
- lysis of human neutrophils in vitro [1]: significant lysis
- chemotactic activities [2]: most potent
- calcium flux [3]: most potent
- specific antibody production in vivo ([4]; N-formylated synthetic PSM peptides, BALB/c mice (FIG. 11)): most robust antibody production
- specific antibody production in vivo ([4]; non N-formylated synthetic PSM peptides, BALB/c mice (FIG. 12)): strongest response
